Positions of bridges follow the written chain, without caps; N, C: chain ends. Residues, ends and D or L forms follow the SMILES beside them.
What was measured:
[1] = system: conscious rabbits; assay: Blood pressure and heart rate in conscious rabbits, intravenous infusion dose-response (Example 8)
[2] = molecular target: T1, Natriuretic Peptide Receptor-A (NPR-A) signaling in MDCK cells (Canis lupus familiaris, UniProt A0A8I3MHU3); assay type: cell-based, canine; conditions: stimulation of cGMP accumulation in MDCK cells; for EC50: read-out: EC50 (M) ± Standard Error
T1 sequence (A0A8I3MHU3 32-1060): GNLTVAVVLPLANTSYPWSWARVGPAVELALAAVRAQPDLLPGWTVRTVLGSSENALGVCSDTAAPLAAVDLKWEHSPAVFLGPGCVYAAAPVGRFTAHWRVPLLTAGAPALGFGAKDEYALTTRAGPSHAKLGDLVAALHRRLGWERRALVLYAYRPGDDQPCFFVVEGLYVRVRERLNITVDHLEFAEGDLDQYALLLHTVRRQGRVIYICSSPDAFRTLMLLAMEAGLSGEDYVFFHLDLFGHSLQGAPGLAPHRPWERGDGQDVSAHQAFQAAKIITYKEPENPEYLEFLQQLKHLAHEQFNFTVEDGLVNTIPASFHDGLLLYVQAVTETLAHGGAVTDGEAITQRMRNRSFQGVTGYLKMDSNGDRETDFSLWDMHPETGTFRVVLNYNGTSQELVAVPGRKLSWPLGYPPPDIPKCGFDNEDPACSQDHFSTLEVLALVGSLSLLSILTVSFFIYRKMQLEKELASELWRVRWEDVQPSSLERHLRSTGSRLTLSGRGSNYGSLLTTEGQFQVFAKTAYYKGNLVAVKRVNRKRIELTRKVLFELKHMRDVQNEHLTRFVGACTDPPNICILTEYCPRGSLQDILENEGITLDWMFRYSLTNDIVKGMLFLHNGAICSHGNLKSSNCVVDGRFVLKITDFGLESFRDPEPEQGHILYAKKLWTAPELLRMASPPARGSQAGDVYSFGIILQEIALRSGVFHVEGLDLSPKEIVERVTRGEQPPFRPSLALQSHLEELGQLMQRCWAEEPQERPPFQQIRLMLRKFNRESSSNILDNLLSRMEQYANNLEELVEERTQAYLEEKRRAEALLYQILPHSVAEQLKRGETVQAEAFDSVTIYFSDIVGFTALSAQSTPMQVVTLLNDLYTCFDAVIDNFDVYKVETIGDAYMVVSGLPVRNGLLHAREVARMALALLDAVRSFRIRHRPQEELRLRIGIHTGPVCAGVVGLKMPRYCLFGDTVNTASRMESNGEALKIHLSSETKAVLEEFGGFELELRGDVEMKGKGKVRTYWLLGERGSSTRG

[3] = molecular target: T2, Plasmin (Homo sapiens, UniProt P00747); assay: Stability to enzymatic degradation by plasmin (Examples 7, 16); assay type: in vitro ADME; conditions: plasmin, 37° C.
T2 construct: with 500 ng Endopeptidase (NEP) or 10 μg Plasmin
Description: The incubation buffer contained 100 mM Tris/HCl and 150 mM NaCl and the pH was adjusted to 7.2-7.4. In each assay, 100 μl of peptide [500 μM] was incubated with 300 μl buffer (with 500 ng Endopeptidase (NEP) or 10 μg Plasmin) at 37° C. 50 μl aliquots were taken at times 5 min, 30 min, 60 min, 90 min, 180 min and 24 h. The reaction was quenched by heating to 100° C. for 4 min and the remaining peptide concentrations measured by RP-HPLC. Note that the levels of Plasmin required to degrade these peptides was several thousands time the levels present in human plasma.
The stability of TDT and was investigated using the same enzymatic degradation assays (NEP, plasmin, pepsin) disclosed in Example 7. […] It is also evident that the increased NEP stability cannot be explained by the length of the tail region alone as the NEP cleavage site residues at the N-terminal end of the loop region.

[4] = system: normal rats; assay: Hemodynamic parameters in normal anesthetized rats (Example 10)
[5] = system: rats with chronic heart failure; assay: Rat model of chronic heart failure, left coronary artery occlusion, anesthetized (Example 10); conditions: HF rats
[6] = after a 2 hour recovery period, Table 10B

T2 sequence (P00747 97-580 partner limits assumed, species assumed): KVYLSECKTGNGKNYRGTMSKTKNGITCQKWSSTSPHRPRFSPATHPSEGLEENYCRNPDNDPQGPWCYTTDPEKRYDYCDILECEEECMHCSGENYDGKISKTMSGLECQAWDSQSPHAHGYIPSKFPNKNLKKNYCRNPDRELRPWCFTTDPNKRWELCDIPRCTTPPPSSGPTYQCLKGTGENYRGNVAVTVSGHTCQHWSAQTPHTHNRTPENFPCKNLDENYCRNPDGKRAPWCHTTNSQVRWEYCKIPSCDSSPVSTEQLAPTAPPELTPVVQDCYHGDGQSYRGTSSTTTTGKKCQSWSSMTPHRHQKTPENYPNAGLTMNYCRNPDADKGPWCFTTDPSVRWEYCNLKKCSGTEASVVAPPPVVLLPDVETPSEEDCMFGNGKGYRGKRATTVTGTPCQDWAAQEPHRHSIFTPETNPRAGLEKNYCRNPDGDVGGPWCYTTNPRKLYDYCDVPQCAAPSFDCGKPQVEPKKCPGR
T2 sequence (P00747 581-810 limits assumed, species assumed): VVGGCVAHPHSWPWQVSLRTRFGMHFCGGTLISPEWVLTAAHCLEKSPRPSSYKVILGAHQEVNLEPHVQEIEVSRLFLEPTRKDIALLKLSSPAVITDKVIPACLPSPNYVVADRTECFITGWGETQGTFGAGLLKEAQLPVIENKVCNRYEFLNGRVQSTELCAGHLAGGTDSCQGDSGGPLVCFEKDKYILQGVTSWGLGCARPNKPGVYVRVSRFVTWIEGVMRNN

CC[C@H](C)[C@H](NC(=O)[C@H](CCCCN)NC(=O)[C@H](CO)NC(=O)[C@H](CC(=O)O)NC(=O)[C@@H](N)CO)C(=O)NCC(=O)N[C@@H](CC(N)=O)C(=O)NCC(=O)N[C@H]1CSSC[C@@H](C(=O)N[C@@H](CC(N)=O)C(=O)N[C@@H](CCCNC(=N)N)C(=O)N[C@H](C(=O)N[C@@H](CCSC)C(=O)N[C@@H](CCC(N)=O)C(=O)N[C@@H](CC(N)=O)C(=O)N2CCC[C@H]2C(=O)N2CCC[C@H]2C(=O)N[C@@H](CCCCN)C(=O)N[C@@H](CCCCN)C(=O)N[C@@H](Cc2ccccc2)C(=O)N[C@@H](CO)C(=O)NCC(=O)N[C@@H](CCC(=O)O)C(=O)O)[C@@H](C)CC)NC(=O)CNC(=O)[C@H](CC(C)C)NC(=O)CNC(=O)[C@H](CO)NC(=O)[C@H](C(C)C)NC(=O)[C@H](CO)NC(=O)[C@H](CCCNC(=N)N)NC(=O)[C@H]([C@@H](C)CC)NC(=O)[C@H](CCCNC(=N)N)NC(=O)[C@H](CC(=O)O)NC(=O)[C@H](CC(C)C)NC(=O)[C@@H]2CCCN2C(=O)[C@H](Cc2ccccc2)NC(=O)CNC(=O)[C@H](Cc2ccccc2)NC1=O [TNPc R-18] (H-SDSKIGNGCFGFPLDRIRSVSGLGCNRIMQNPPKKFSGE-OH; disulfide 9-25; N-terminus assumed)
MAP at final dose ([1]; Table 10B): 63.5 mm Hg
Recovery (MAP) [1, 6]: 67.4 mm Hg
Recovery Delta SED (MAP) [1, 6]: 3.8 ± 1.6 mm Hg
Treatment Effect, change of mean blood pressure during the infusion ([1]; final dose, Table 10B, groups 2B and 2C): −9.0 mm Hg
reduction of MAP compared to vehicle, in words ([1]; highest dose): did significantly reduce MAP
−Log10 EC50 (pEC50) ± Standard Error [2]: 6.777 ± 0.5812
EC50 [2]: 7e-07 M

CC[C@H](C)[C@@H]1NC(=O)[C@H](CCCNC(=N)N)NC(=O)[C@H](CC(=O)O)NC(=O)[C@H](CCSC)NC(=O)[C@H](CCCCN)NC(=O)[C@H](CCCNC(=N)N)NC(=O)CNC(=O)[C@H](Cc2ccccc2)NC(=O)[C@@H](NC(=O)CNC(=O)[C@H](CO)NC(=O)CNC(=O)[C@H](CCC(N)=O)NC(=O)[C@@H](NC(=O)[C@H](CCSC)NC(=O)[C@H](CCCCN)NC(=O)[C@@H]2CCCN2C(=O)[C@@H](N)CO)C(C)C)CSSC[C@@H](C(=O)N[C@@H](CCCCN)C(=O)N[C@H](C(=O)N[C@@H](CC(C)C)C(=O)N[C@@H](CCCNC(=N)N)C(=O)N[C@@H](CCCNC(=N)N)C(=O)N[C@@H](Cc2c[nH]cn2)C(=O)O)C(C)C)NC(=O)CNC(=O)[C@H](CC(C)C)NC(=O)CNC(=O)[C@H](CO)NC(=O)[C@H](CO)NC(=O)[C@H](CO)NC(=O)[C@H](CO)NC1=O [hBNP]
time taken to recover to 50% of the peak response ([1]; bolus injection of 0.24 mg/kg TNPc or equivalent molar dose of BNP): 80 min
half-life at 125 μM ([3]; plasmin in Tris/HCl-NaCl buffer, read-out: HalfLife in plasmin): 13.1 min
K (one phase exponential decay, best fit values) [3]: 0.053
PLATEAU (one phase exponential decay, best fit values) [3]: 0.03403
SPAN (one phase exponential decay, best fit values) [3]: 0.9926
Blood Flow, mean change from control ([4]; 50 pmol/kg/min, 30 min): -1.9 mL/min
Conductance, mean change from control ([4]; 50 pmol/kg/min, 30 min): −1.1 ml/min/mmHg
Diastolic LVP, mean change from control ([4]; 50 pmol/kg/min, 30 min): −0.1 mmHg
HCT, mean change from control ([4]; 50 pmol/kg/min, 30 min): 1.0%
HR, mean change from control ([4]; 50 pmol/kg/min, 30 min): −16.6 BPM
Mean BP, mean change from control ([4]; 50 pmol/kg/min, 30 min): −6.4 mmHg
Urine Flow, mean change from control ([4]; 50 pmol/kg/min, 30 min): 0.2 mL/h
Blood Flow, mean change from control ([4]; 100 pmol/kg/min, 30 min): -2.6 mL/min
Conductance, mean change from control ([4]; 100 pmol/kg/min, 30 min): −1.2 ml/min/mmHg
Diastolic LVP, mean change from control ([4]; 100 pmol/kg/min, 30 min): 0.1 mmHg
HCT, mean change from control ([4]; 100 pmol/kg/min, 30 min): 3.5%
HR, mean change from control ([4]; 100 pmol/kg/min, 30 min): −5.3 BPM
Mean BP, mean change from control ([4]; 100 pmol/kg/min, 30 min): −14.9 mmHg
Urine Flow, mean change from control ([4]; 100 pmol/kg/min, 30 min): 0.7 mL/h
Blood Flow, mean change from control ([4]; Recovery): -3.6 mL/min
Conductance, mean change from control ([4]; Recovery): −1.3 ml/min/mmHg
Diastolic LVP, mean change from control ([4]; Recovery): −0.2 mmHg
HCT, mean change from control ([4]; Recovery): −0.3%
HR, mean change from control ([4]; Recovery): 1.3 BPM
Mean BP, mean change from control ([4]; Recovery): −14.1 mmHg
Urine Flow, mean change from control ([4]; Recovery): 0.6 mL/h
Blood Flow, Average drug response SED ([4]; average of the two doses): -2.2 ± 1.0 mL/min
Conductance, Average drug response SED ([4]; average of the two doses): −1.1 ± 0.4 ml/min/mmHg
Diastolic LVP, Average drug response SED ([4]; average of the two doses): 0.0 ± 0.3 mmHg
HCT, Average drug response SED ([4]; average of the two doses): 2.2 ± 0.6%
HR, Average drug response SED ([4]; average of the two doses): −10.9 ± 7.1 BPM
Mean BP, Average drug response SED ([4]; average of the two doses): −10.7 ± 4.7 mmHg
Urine Flow, Average drug response SED ([4]; average of the two doses): 0.5 ± 0.4 mL/h
−Log10 EC50 (pEC50) ± Standard Error [2]: 9.165 ± 0.1039
EC50 [2]: 9.07e-10 M
Blood Flow, mean change from control ([5]; 50 pmol/kg/min, 30 min): -1.6 mL/min
Conductance, mean change from control ([5]; 50 pmol/kg/min, 30 min): −0.3 ml/min/mmHg
Diastolic LVP, mean change from control ([5]; 50 pmol/kg/min, 30 min): −0.7 mmHg
HCT, mean change from control ([5]; 50 pmol/kg/min, 30 min): 1.9%
HR, mean change from control ([5]; 50 pmol/kg/min, 30 min): −12.3 bpm
Mean BP, mean change from control ([5]; 50 pmol/kg/min, 30 min): −9.6 mmHg
Urine Flow, mean change from control ([5]; 50 pmol/kg/min, 30 min): 0.8 mL/h
Blood Flow, mean change from control ([5]; 100 pmol/kg/min, 30 min): -2.9 mL/min
Conductance, mean change from control ([5]; 100 pmol/kg/min, 30 min): 0.2 ml/min/mmHg
Diastolic LVP, mean change from control ([5]; 100 pmol/kg/min, 30 min): −1.2 mmHg
HCT, mean change from control ([5]; 100 pmol/kg/min, 30 min): 0.3%
HR, mean change from control ([5]; 100 pmol/kg/min, 30 min): −40.5 bpm
Mean BP, mean change from control ([5]; 100 pmol/kg/min, 30 min): −26.5 mmHg
Urine Flow, mean change from control ([5]; 100 pmol/kg/min, 30 min): 0.7 mL/h
Blood Flow, mean change from control ([5]; Recovery): -1.0 mL/min
Conductance, mean change from control ([5]; Recovery): 0.5 ml/min/mmHg
Diastolic LVP, mean change from control ([5]; Recovery): 1.9 mmHg
HCT, mean change from control ([5]; Recovery): −1.3%
HR, mean change from control ([5]; Recovery): −41.7 bpm
Mean BP, mean change from control ([5]; Recovery): −14.6 mmHg
Urine Flow, mean change from control ([5]; Recovery): -0.2 mL/h
Blood Flow, Average drug response SED ([5]; average of the two doses): -2.2 ± 0.4 mL/min
Conductance, Average drug response SED ([5]; average of the two doses): −0.1 ± 0.3 ml/min/mmHg
Diastolic LVP, Average drug response SED ([5]; average of the two doses): −1.0±1.0 mmHg
HCT, Average drug response SED ([5]; average of the two doses): 1.1 ± 0.8%
HR, Average drug response SED ([5]; average of the two doses): −26.4 ± 23.0 bpm
Mean BP, Average drug response SED ([5]; average of the two doses): −18.1±6.3 mmHg
Urine Flow, Average drug response SED ([5]; average of the two doses): 0.7 ± 0.3 mL/h

Source: patent US8058242B2, “Chimeric proteins with natriuretic activity” (The University of Queensland, priority 2004, dated 2011)
